From ChEMBL document CHEMBL1201862, “PubChem BioAssay data set” (2004)
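Assay format: 96-well plates, 48-hour exposure. The concentration for 50% growth inhibition is given as GI50.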 Activity calls are given as the source filed them. No stated cut-off is given here; in the data, active = GI50 up to about 1.1 µM and inactive = higher.

Experiments:
Test in all cases: NCI anticancer screen, dose series, 48 h
ACHN = system: ACHN
SNB-19 = system: SNB-19
RXF 393 = system: RXF 393
SW-620 = system: SW-620
RXF 631 = system: RXF 631
UACC-62 = system: UACC-62
RPMI-8226 = system: RPMI-8226
786-0 = system: 786-0
SK-MEL-2 = system: SK-MEL-2
A498 = system: A498
DMS-114 = system: DMS-114
OVCAR-5 = system: OVCAR-5
NCI-H522 = system: NCI-H522
HOP-92 = system: HOP-92
K562 = system: K562
OVCAR-3 = system: OVCAR-3
SF-539 = system: SF-539
COLO 205 = system: COLO 205
TK-10 = system: TK-10
SK-OV-3 = system: SK-OV-3
LXFL 529 = system: LXFL 529
NCI-H226 = system: NCI-H226
SK-MEL-5 = system: SK-MEL-5
MOLT-4 = system: MOLT-4
CAKI-1 = system: CAKI-1
UACC-257 = system: UACC-257
M19-MEL = system: M19-MEL
KM12 = system: KM12
HT-29 = system: HT-29
U-251 = system: U-251
LOX IMVI = system: LOX IMVI
NCI-H23 = system: NCI-H23
KM-20L2 = system: KM-20L2
A549 = system: A549
UO-31 = system: UO-31
SNB-78 = system: SNB-78
HCT-15 = system: HCT-15
NCI-H460 = system: NCI-H460
HOP-62 = system: HOP-62
SF-295 = system: SF-295
HCC 2998 = system: HCC 2998
Malme-3M = system: Malme-3M
OVCAR-4 = system: OVCAR-4
OVCAR-8 = system: OVCAR-8
SK-MEL-28 = system: SK-MEL-28
HL-60 = system: HL-60
SN12C = system: SN12C
DMS-273 = system: DMS-273
SR = system: SR
SF-268 = system: SF-268
HOP-18 = system: HOP-18
CCRF-CEM = system: CCRF-CEM
HCT-116 = system: HCT-116
EKVX = system: EKVX
IGROV-1 = system: IGROV-1
M14 = system: M14
DLD-1 = system: DLD-1
SNB-75 = system: SNB-75

Compound: CCOc1ccccc1NC(=O)CC(C(=O)OC)C(=O)C(=O)OC (centres undefined)
- GI50 (ACHN): > 100 µM (inactive)
- GI50 (SNB-19): > 100 µM (inactive)
- GI50 (RXF 393): > 100 µM (inactive)
- GI50 (SW-620): > 100 µM (inactive)
- GI50 (RXF 631): > 100 µM (inactive)
- GI50 (UACC-62): > 100 µM (inactive)
- GI50 (RPMI-8226): > 100 µM (inactive)
- GI50 (786-0): > 100 µM (inactive)
- GI50 (SK-MEL-2): > 100 µM (inactive)
- GI50 (A498): > 100 µM (inactive)
- GI50 (DMS-114): > 100 µM (inactive)
- GI50 (OVCAR-5): > 100 µM (inactive)
- GI50 (NCI-H522): > 100 µM (inactive)
- GI50 (HOP-92): > 100 µM (inactive)
- GI50 (K562): > 100 µM (inactive)
- GI50 (OVCAR-3): > 100 µM (inactive)
- GI50 (SF-539): > 100 µM (inactive)
- GI50 (COLO 205): > 100 µM (inactive)
- GI50 (TK-10): > 100 µM (inactive)
- GI50 (SK-OV-3): > 100 µM (inactive)
- GI50 (LXFL 529): > 100 µM (inactive)
- GI50 (NCI-H226): > 100 µM (inactive)
- GI50 (SK-MEL-5): > 100 µM (inactive)
- GI50 (MOLT-4): > 100 µM (inactive)
- GI50 (CAKI-1): > 100 µM (inactive)
- GI50 (UACC-257): > 100 µM (inactive)
- GI50 (M19-MEL): > 100 µM (inactive)
- GI50 (KM12): > 100 µM (inactive)
- GI50 (HT-29): > 100 µM (inactive)
- GI50 (U-251): > 100 µM (inactive)
- GI50 (LOX IMVI): > 100 µM (inactive)
- GI50 (NCI-H23): > 100 µM (inactive)
- GI50 (KM-20L2): > 100 µM (inactive)
- GI50 (A549): > 100 µM (inactive)
- GI50 (UO-31): > 100 µM (inactive)
- GI50 (SNB-78): > 100 µM (inactive)
- GI50 (HCT-15): > 100 µM
- GI50 (NCI-H460): > 100 µM (inactive)
- GI50 (HOP-62): > 100 µM (inactive)
- GI50 (SF-295): > 100 µM (inactive)
- GI50 (HCC 2998): > 100 µM (inactive)
- GI50 (Malme-3M): > 100 µM (inactive)
- GI50 (OVCAR-4): > 100 µM (inactive)
- GI50 (OVCAR-8): > 100 µM (inactive)
- GI50 (SK-MEL-28): > 100 µM (inactive)
- GI50 (HL-60): > 100 µM (inactive)
- GI50 (SN12C): > 100 µM (inactive)
- GI50 (DMS-273): > 100 µM (inactive)
- GI50 (SR): > 100 µM (inactive)
- GI50 (SF-268): > 100 µM (inactive)
- GI50 (HOP-18): > 100 µM (inactive)
- GI50 (CCRF-CEM): > 100 µM (inactive)
- GI50 (HCT-116): > 100 µM (inactive)
- GI50 (EKVX): > 100 µM (inactive)
- GI50 (IGROV-1): > 100 µM (inactive)
- GI50 (M14): > 100 µM (inactive)

Compound: CN(C)CCC(CCN(C)C)=NO
- GI50 (ACHN): > 100 µM (inactive)
- GI50 (SNB-19): > 100 µM (inactive)
- GI50 (RXF 393): > 100 µM (inactive)
- GI50 (SW-620): > 100 µM (inactive)
- GI50 (RXF 631): > 100 µM (inactive)
- GI50 (UACC-62): > 100 µM (inactive)
- GI50 (RPMI-8226): > 100 µM (inactive)
- GI50 (786-0): > 100 µM (inactive)
- GI50 (SK-MEL-2): > 100 µM (inactive)
- GI50 (A498): > 100 µM (inactive)
- GI50 (DMS-114): > 100 µM (inactive)
- GI50 (NCI-H522): > 100 µM (inactive)
- GI50 (DLD-1): > 100 µM (inactive)
- GI50 (K562): > 100 µM (inactive)
- GI50 (OVCAR-3): > 100 µM (inactive)
- GI50 (SF-539): > 100 µM (inactive)
- GI50 (COLO 205): > 100 µM (inactive)
- GI50 (TK-10): > 100 µM (inactive)
- GI50 (SK-OV-3): > 100 µM (inactive)
- GI50 (LXFL 529): > 100 µM (inactive)
- GI50 (SK-MEL-5): > 100 µM (inactive)
- GI50 (MOLT-4): > 100 µM (inactive)
- GI50 (CAKI-1): > 100 µM (inactive)
- GI50 (UACC-257): > 100 µM (inactive)
- GI50 (M19-MEL): > 100 µM (inactive)
- GI50 (KM12): > 100 µM (inactive)
- GI50 (HT-29): > 100 µM (inactive)
- GI50 (U-251): > 100 µM (inactive)
- GI50 (NCI-H23): > 100 µM (inactive)
- GI50 (KM-20L2): > 100 µM (inactive)
- GI50 (SNB-75): > 100 µM (inactive)
- GI50 (A549): > 100 µM (inactive)
- GI50 (UO-31): > 100 µM (inactive)
- GI50 (SNB-78): > 100 µM (inactive)
- GI50 (HCT-15): > 100 µM
- GI50 (NCI-H460): > 100 µM (inactive)
- GI50 (HOP-62): > 100 µM (inactive)
- GI50 (SF-295): > 100 µM (inactive)
- GI50 (HCC 2998): > 100 µM (inactive)
- GI50 (Malme-3M): > 100 µM (inactive)
- GI50 (OVCAR-4): > 100 µM (inactive)
- GI50 (OVCAR-8): > 100 µM (inactive)
- GI50 (SK-MEL-28): > 100 µM (inactive)
- GI50 (HL-60): > 100 µM (inactive)
- GI50 (SN12C): > 100 µM (inactive)
- GI50 (DMS-273): > 100 µM (inactive)
- GI50 (SF-268): > 100 µM (inactive)
- GI50 (HOP-18): > 100 µM (inactive)
- GI50 (CCRF-CEM): > 100 µM (inactive)
- GI50 (HCT-116): > 100 µM (inactive)
- GI50 (EKVX): > 100 µM (inactive)
- GI50 (IGROV-1): > 100 µM (inactive)
- GI50 (M14): > 100 µM (inactive)
